# Molecular target: T1, mouse Tas2r126 (Mus musculus, UniProt P59532)
# T1 construct: expressed in transfected cells; host or cells: HEK293T-Gα16gust44
# T1 sequence (P59532 1-308): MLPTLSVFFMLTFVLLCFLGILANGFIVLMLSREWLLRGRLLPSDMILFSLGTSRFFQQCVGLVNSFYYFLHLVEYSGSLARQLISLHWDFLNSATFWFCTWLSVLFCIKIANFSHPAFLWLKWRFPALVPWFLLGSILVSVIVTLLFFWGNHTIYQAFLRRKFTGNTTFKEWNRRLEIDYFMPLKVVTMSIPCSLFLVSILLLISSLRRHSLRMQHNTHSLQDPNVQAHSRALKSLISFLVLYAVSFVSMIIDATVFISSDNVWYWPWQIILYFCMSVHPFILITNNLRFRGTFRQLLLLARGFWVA
# Assay: Calcium imaging assay (FLIPR), HEK293T-Gα16gust44 cells transfected with mouse Tas2r126
# Type: cell-based
# Conditions: for Δ F/F: Tas2r126
# Experimental: This set of bile acids was chosen because of their commercial availability in high purities, their diversity within the class of bile acids and their previous detection and quantitation in human blood. Stock solutions were prepared in DMSO.
# As basal growth medium for the HEK293T-Gα16gust44 cell line[17],[59] served Dulbecco’s modified eagle medium (DMEM) (Thermo Fisher Scientific, Darmstadt, Germany) supplemented with 10 % fetal bovine serum (Sigma-Aldrich, Steinheim, Germany), 2 mM L-glutamine (Sigma-Aldrich, Steinheim, Germany), 100 units/ml penicillin (Sigma Aldrich, Steinheim, Germany) and 100 µg/ml streptomycin (Sigma Aldrich, Steinheim, Germany). Growth conditions were 37 °C, 5 % CO2 and saturated air-humidity[60].
# HEK293T-Gα16gust44 cells were seeded on poly-D-lysine (10 µg/ml) coated 96-well plates to reach a confluence of 40-60 % the next day. For transient transfection 150 ng of plasmid DNA containing the receptor of interest and 0.3 µl lipofectamine 2000 (Thermo Fisher Scientific, Darmstadt, Germany) per well were used and transfection took place according to the manual of lipofectamine 2000. […] The empty vector DNA (mock) was transfected as negative control[14],[41].
# Cells were loaded using the calcium-sensitive fluorescent dye Fluo-4-AM (Abcam, Cambridge, Great Britain) in the presence of 2.5 mM probenecid (Sigma-Aldrich, Steinheim, Germany) the day after transfection[13],[41]. 1 h after loading, cells were washed with C1 buffer using a BioTek Cell Washer, incubated in the dark for half an hour and washed again. For automated agonist application and measurement of fluorescence changes, a FLIPR^TETRA device (Molecular Devices, San José, United States) was used. Viability of cells was tested by application of 100 nM Somatostatin 14 (Bachem, Bubendorf, Switzerland)[42].
# Measured data were negative control corrected by subtracting the signal of the mock-transfected cells and exported to Microsoft Excel using the FLIPR software ScreenWorks 4.2. In Microsoft Excel software, standardization of maximum fluorescence intensities to the basal fluorescence and normalization to the buffer-only control was done to calculate the relative fluorescence changes (ΔF/F).
# Initial screening experiments performed in duplicate wells were confirmed by at least one replication and representative traces were selected for display. All dose-response relationships were determined by three independent experiments (biological replicates) performed in duplicates (technical replicates). Threshold concentrations, defined as lowest substance concentrations leading to statistically significant elevated fluorescence changes in receptor-transfected cells compared with empty vector-transfected cells, were determined using SigmaPlot with Student’s t-test to evaluate statistical significance (p < 0.01).
structure (smiles),measurement,setting,value
"C[C@H](CCC(=O)NCC(=O)O)[C@H]1CC[C@H]2[C@@H]3[C@H](O)C[C@@H]4C[C@H](O)CC[C@]4(C)[C@H]3C[C@H](O)[C@]12C [Glycocholic Acid, glycocholic acid]",Δ F/F,"conc. 0,01 mM",0.008892
same,Δ F/F,"conc. 0,1 mM",0.01338
same,Δ F/F,"conc. 0,03 mM",0.009319
same,Δ F/F,"conc. 0,3 mM",0.02767
same,Δ F/F,"conc. 0,001 mM",0.01077
same,Δ F/F,conc. 1 mM,0.17
same,Δ F/F,"conc. 0,003 mM",0.01208
same,RLU,Time 0 s,0 RLU
same,RLU,Time 2 s,-8.029 RLU
same,RLU,Time 4 s,1.1384 RLU
same,RLU,Time 6 s,10.4148 RLU
same,RLU,Time 8 s,-13.1228 RLU
same,RLU,Time 12 s,17.4885 RLU
same,RLU,Time 14 s,-0.7257 RLU
same,RLU,Time 16 s,-10.5283 RLU
same,RLU,Time 18 s,16.8146 RLU
same,RLU,Time 18.781 s,23.6211 RLU
same,RLU,Time 20.781 s,-40.338 RLU
same,RLU,Time 22.781 s,22.3326 RLU
same,RLU,Time 24.781 s,63.7084 RLU
same,RLU,Time 26.781 s,76.1804 RLU
same,RLU,Time 28.781 s,137.207 RLU
same,RLU,Time 30.781 s,214.617 RLU
same,RLU,Time 32.781 s,318.834 RLU
same,RLU,Time 34.781 s,384.223 RLU
same,RLU,Time 36.781 s,455.203 RLU
same,RLU,Time 38.781 s,531.38 RLU
same,RLU,Time 40.781 s,571.264 RLU
same,RLU,Time 42.781 s,599.999 RLU
same,RLU,Time 44.781 s,648.8 RLU
same,RLU,Time 46.781 s,709.576 RLU
same,RLU,Time 48.781 s,742.486 RLU
same,RLU,Time 50.781 s,750.019 RLU
same,RLU,Time 52.781 s,771.673 RLU
same,RLU,Time 54.781 s,762.339 RLU
same,RLU,Time 56.781 s,801.528 RLU
same,RLU,Time 58.781 s,778.328 RLU
same,RLU,Time 60.781 s,814.918 RLU
same,RLU,Time 62.781 s,813.898 RLU
same,RLU,Time 64.781 s,822.442 RLU
same,RLU,Time 66.781 s,857.883 RLU
same,RLU,Time 68.781 s,851.231 RLU
same,RLU,Time 70.781 s,849.562 RLU
same,RLU,Time 72.781 s,871.931 RLU
same,RLU,Time 74.781 s,863.674 RLU
same,RLU,Time 76.781 s,844.593 RLU
same,RLU,Time 78.781 s,886.207 RLU
same,RLU,Time 80.781 s,865.546 RLU
same,RLU,Time 82.781 s,883.065 RLU
same,RLU,Time 84.781 s,898.032 RLU
same,RLU,Time 86.781 s,896.748 RLU
same,RLU,Time 88.781 s,900.918 RLU
same,RLU,Time 90.781 s,874.944 RLU
same,RLU,Time 92.781 s,885.691 RLU
same,RLU,Time 94.781 s,894.456 RLU
same,RLU,Time 96.781 s,901.176 RLU
same,RLU,Time 98.781 s,886.538 RLU
same,RLU,Time 100.781 s,892.555 RLU
same,RLU,Time 102.781 s,881.874 RLU
same,RLU,Time 104.781 s,894.645 RLU
same,RLU,Time 106.781 s,887.982 RLU
same,RLU,Time 108.781 s,886.297 RLU
same,RLU,Time 110.781 s,884.059 RLU
same,RLU,Time 112.781 s,887.824 RLU
same,RLU,Time 114.781 s,848.107 RLU
same,RLU,Time 116.781 s,861.685 RLU
same,RLU,Time 118.781 s,828.869 RLU
same,RLU,Time 120.781 s,825.037 RLU
same,RLU,Time 122.781 s,836.581 RLU
same,RLU,Time 124.781 s,866.188 RLU
same,RLU,Time 126.781 s,858.575 RLU
same,RLU,Time 128.781 s,826.803 RLU
same,RLU,Time 130.781 s,818.964 RLU
same,RLU,Time 132.781 s,847.33 RLU
same,RLU,Time 134.781 s,852.99 RLU
same,RLU,Time 136.781 s,809.769 RLU
same,RLU,Time 137.563 s,804.878 RLU
same,RLU,Time 143.563 s,793.514 RLU
same,RLU,Time 149.563 s,748.056 RLU
same,RLU,Time 155.563 s,797.54 RLU
same,RLU,Time 161.563 s,777.219 RLU
same,RLU,Time 167.563 s,736.981 RLU
same,RLU,Time 173.563 s,734.04 RLU
same,RLU,Time 179.563 s,691.98 RLU
same,RLU,Time 185.563 s,705.69 RLU
same,RLU,Time 191.563 s,730.013 RLU
same,RLU,Time 197.563 s,719.476 RLU
same,RLU,Time 203.563 s,676.213 RLU
same,RLU,Time 209.563 s,680.042 RLU
same,RLU,Time 215.563 s,670.332 RLU
same,RLU,Time 221.563 s,696.914 RLU
same,RLU,Time 227.563 s,687.176 RLU
same,RLU,Time 233.563 s,674.703 RLU
same,RLU,Time 239.563 s,658.755 RLU
same,RLU,Time 245.563 s,686.39 RLU
same,RLU,Time 293.563 s,673.116 RLU
same,RLU,Time 299.563 s,656.796 RLU
same,RLU,Time 305.563 s,663.675 RLU
same,RLU,Time 311.563 s,633.551 RLU
same,RLU,Time 317.563 s,673.002 RLU
same,RLU,Time 323.563 s,666.023 RLU
same,RLU,Time 329.563 s,652.752 RLU
same,RLU,Time 335.563 s,658.256 RLU
same,RLU,Time 341.563 s,702.617 RLU
same,RLU,Time 347.563 s,659.503 RLU
same,RLU,Time 353.563 s,654.507 RLU
same,RLU,Time 359.563 s,650.344 RLU
same,Activation threshold concentration Tas2r126,p < 0.01 vs empty vector,100 µM
